Legend:
[1] = 100 kPa, Liquid, Vibrating tube method
[2] = xn = mol fraction of the nth substance listed; conditions: 100 kPa, Liquid, Vibrating tube method, x2 = 0

O [water]
[1]
Conditions	mass density [kg/m3]
274.15 K	999.899
275.15 K	999.94
276.15 K	999.964
277.15 K	999.972
278.15 K	999.964
279.15 K	999.94
280.15 K	999.901
281.15 K	999.848
282.15 K	999.781
283.15 K	999.699
323.15 K	988.03
333.15 K	983.191

O [water] + CNC(N)=O
[2]
Conditions	mass density [kg/m3]
274.15 K	999.899
275.15 K	999.94
276.15 K	999.964
277.15 K	999.972
278.15 K	999.964
279.15 K	999.94
280.15 K	999.901
281.15 K	999.848
282.15 K	999.781
283.15 K	999.699
323.15 K	988.03
333.15 K	983.191

Reference: the NIST ThermoML archive (doi:10.1021/acs.jced.7b00750)
